{"source": "patent US20250243176A1", "about": "“(S)-1-(1-ACRYLOYLPIPERIDIN-3-YL)-2-FLUORO-5,6,7,8,9,10-HEXAHYDROCYCLO HEPTA[B]INDOLE-4-CARBOXAMIDE, AND RELATED CRYSTALLINE FORMS, COMPOSITIONS, AND METHODS THEREOF” (GB005, Inc., priority 2021, published 2025)", "key": {"CYP3A": {"tested_on": "CYP3A", "assay": "Phase 1 drug-drug interaction with itraconazole (strong CYP3A inhibitor)", "assay_type": "in vivo, human", "settings": "for AUC(0-inf) / Cmax / T1/2 / Tmax: Cohort 12, 2 mg single dose; for AUC(0-inf) / Cmax: mean; for T1/2 / Tmax: median", "description": "Cohort 12 is an open-label, fixed-sequence, multiple-dose DDI study with itraconazole (ITZ). Subjects receive a single oral dose of Compound 1 administered in the fasted state on Day 1. Beginning on Day 3 and continuing through to Day 6, subjects receive itraconazole 200 mg once daily (QD) in a fasted state. On Day 5, subjects receive Compound 1 administered in the fasted state, 1 hour after administration of itraconazole.\nResults. Preliminary pharmacokinetic results evaluating the drug-drug interaction effect of a strong CYP3A inhibitor (itraconazole) on Compound 1 PK are presented, including 9 subjects from Cohort 12 receiving single doses of 2 mg Compound 1 under fasting conditions alone or in combination with once daily itraconazole 200 mg. Preliminary PK parameters are presented in Table 49 (all pharmacokinetic parameters of Table 49 are reported as Mean (% coefficient of variation), except for Tmax and t1/2, which are reported as Median (Min, Max)), and in FIG. 29 presenting the mean (SD) plasma concentration-time profiles of Compound 1."}, "BTK": {"tested_on": "BTK", "assay": "BTK inactivation kinetics in peripheral and CNS tissue", "source_text": "(S)-1-(1-acryloylpiperidin-3-yl)-2-fluoro-5,6,7,8,9,10-hexahydrocyclohepta[b]indole-4-carboxamide, hereinafter referred to as “Compound 1”, is an orally available, selective, potent inhibitor of Bruton's tyrosine kinase (BTK), thereby providing potential treatment options in BTK-driven diseases. The potency of Compound 1 for BTK inhibition is in the nM range in both cell-free enzymatic and whole blood functional assays."}, "[1]": {"assay": "Solubility testing in vehicle, HPLC (Form III)", "assay_type": "physicochemical", "settings": "for Solubility: loading 50 mg/mL; for solubility at 24 h / solubility at 72 h: aqueous with cosolvent or surfactant or cyclodextrin, thermodynamic from solid, loading 15 mg/mL", "description": "In each of the following studies (Examples 6-10), the starting material was Compound 1 (free form, not salt) Form III. The material was a light yellow solid, comprising non-hygroscopic irregular shaped crystal with aggregation. The same analytical methods as described in Example 1 were employed.\nVehicle solutions were prepared as follows:\nSolubility was determined at room temperature for 24 and 72 hours and at 45° C. for 4 and 24 hours. About 30/100 mg Compound 1 was added to vehicle (2 mL) and the mixture stirred at room temperature for 24 or 72 hours. The suspensions were filtered or centrifuged, and the filtrate analyzed by HPLC."}, "[2]": {"settings": "2 mg Compound 1, itraconazole 200 mg once daily, fasting"}, "[3]": {"settings": "fasted, Day 5 (+ITZ 200 mg once daily)"}, "[4]": {"settings": "single 2 mg dose, fasting, alone or with itraconazole 200 mg once daily"}}, "data": [{"compound": "C=CC(=O)N1CCC[C@@H](c2c(F)cc(C(N)=O)c3[nH]c4c(c23)CCCCC4)C1", "note": "[Compound 1, (S)-1-(1-acryloylpiperidin-3-yl)-2-fluoro-5,6,7,8,9,10-hexahydrocyclohepta[b]indole-4-carboxamide]", "values": [{"measurement": "increase of AUCinf on coadministration of itraconazole", "setting": "CYP3A; [2]", "value": 15, "unit": "%"}, {"measurement": "increase of Cmax on coadministration of itraconazole", "setting": "CYP3A; [2]", "value": 23, "unit": "%"}, {"measurement": "AUC(0-inf)", "setting": "CYP3A; fasted, Day 1 (Alone)", "value": 46.7, "unit": "ng·h/mL"}, {"measurement": "Cmax", "setting": "CYP3A; fasted, Day 1 (Alone)", "value": 21.2, "unit": "ng/mL"}, {"measurement": "T1/2", "setting": "CYP3A; fasted, Day 1 (Alone)", "value": 3.13, "unit": "h"}, {"measurement": "Tmax", "setting": "CYP3A; fasted, Day 1 (Alone)", "value": 1.0, "unit": "h"}, {"measurement": "AUC(0-inf)", "setting": "CYP3A; [3]", "value": 54.4, "unit": "ng·h/mL"}, {"measurement": "Cmax", "setting": "CYP3A; [3]", "value": 26.3, "unit": "ng/mL"}, {"measurement": "T1/2", "setting": "CYP3A; [3]", "value": 3.14, "unit": "h"}, {"measurement": "Tmax", "setting": "CYP3A; [3]", "value": 1.5, "unit": "h"}, {"measurement": "AUC0-inf, % GMR ITZ/Alone", "setting": "CYP3A; Cohort 12, 2 mg, fasted", "value": 115, "unit": "%"}, {"measurement": "Cmax, % GMR ITZ/Alone", "setting": "CYP3A; Cohort 12, 2 mg, fasted", "value": 123, "unit": "%"}, {"measurement": "effect of a strong CYP3A inhibitor on PK", "setting": "CYP3A; coadministration of itraconazole", "value": "no clinically significant effect"}, {"measurement": "mean plasma Tmax", "setting": "CYP3A; [4]", "value": "1.0 to 1.5", "unit": "h"}, {"measurement": "terminal half-life", "setting": "CYP3A; [4]", "value": "approximately 3 hours"}, {"measurement": "BTK inactivation kinetics", "setting": "BTK", "value": "rapid"}, {"measurement": "Solubility", "setting": "[1]; Capryol 90, RT, 72 h, pH 6.5", "value": ">50000", "unit": "µg/mL"}, {"measurement": "Solubility", "setting": "[1]; Cremophor HS 15, 45° C., 24 h, pH 7.5", "value": ">50000", "unit": "µg/mL"}, {"measurement": "Solubility", "setting": "[1]; Gelucire 44/14, 45° C., 24 h, pH 5.8", "value": ">50000", "unit": "µg/mL"}, {"measurement": "Solubility", "setting": "[1]; Gelucire 48/16, 45° C., 24 h", "value": ">50000", "unit": "µg/mL"}, {"measurement": "Solubility", "setting": "[1]; Labrasol, RT, 72 h, pH 6.4", "value": ">50000", "unit": "µg/mL"}, {"measurement": "Solubility", "setting": "[1]; PEG400/TPGS(3/1), 45° C., 24 h, pH 6.1", "value": ">50000", "unit": "µg/mL"}, {"measurement": "Solubility", "setting": "[1]; PEG400, RT, 72 h, pH 6.7", "value": ">50000", "unit": "µg/mL"}, {"measurement": "Solubility", "setting": "[1]; PG, RT, 72 h, pH 5.2", "value": ">50000", "unit": "µg/mL"}, {"measurement": "solubility at 24 h", "setting": "[1]; 1% SLS, RT, 24 h, pH 7.1", "value": 1200, "unit": "µg/mL"}, {"measurement": "solubility at 72 h", "setting": "[1]; 1% SLS, RT, 72 h, pH 7.2", "value": 1150, "unit": "µg/mL"}, {"measurement": "solubility at 24 h", "setting": "[1]; 1% Tween 80, RT, 24 h, pH 6.3", "value": 160, "unit": "µg/mL"}, {"measurement": "solubility at 72 h", "setting": "[1]; 1% Tween 80, RT, 72 h, pH 6.3", "value": 170, "unit": "µg/mL"}, {"measurement": "solubility at 24 h", "setting": "[1]; 1% polox188, RT, 24 h, pH 5.7", "value": 0.2, "unit": "µg/mL"}, {"measurement": "solubility at 72 h", "setting": "[1]; 1% polox188, RT, 72 h, pH 5.7", "value": 0.4, "unit": "µg/mL"}, {"measurement": "solubility at 24 h", "setting": "[1]; 1% polox407, RT, 24 h, pH 6.7", "value": 4, "unit": "µg/mL"}, {"measurement": "solubility at 72 h", "setting": "[1]; 1% polox407, RT, 72 h, pH 6.9", "value": 1, "unit": "µg/mL"}, {"measurement": "solubility at 24 h", "setting": "[1]; 5% PVP K30, RT, 24 h, pH 4.0", "value": 8, "unit": "µg/mL"}, {"measurement": "solubility at 72 h", "setting": "[1]; 5% PVP K30, RT, 72 h, pH 4.0", "value": 60, "unit": "µg/mL"}, {"measurement": "solubility at 24 h", "setting": "[1]; 5% PVP VA64, RT, 24 h, pH 4.6", "value": 36, "unit": "µg/mL"}, {"measurement": "solubility at 72 h", "setting": "[1]; 5% PVP VA64, RT, 72 h, pH 4.6", "value": 42, "unit": "µg/mL"}, {"measurement": "solubility at 24 h", "setting": "[1]; 10% HP-B-CD, RT, 24 h, pH 6.7", "value": 230, "unit": "µg/mL"}, {"measurement": "solubility at 72 h", "setting": "[1]; 10% HP-B-CD, RT, 72 h, pH 6.7", "value": 220, "unit": "µg/mL"}, {"measurement": "solubility at 24 h", "setting": "[1]; 10% SBE-B-CD, RT, 24 h, pH 6.5", "value": 1600, "unit": "µg/mL"}]}]}
